According to publication PMC8963331 (Toxicological Sciences, 2022):
Entries after “also recorded” stand apart in the source; their conditions may differ.

What was measured:
[1] = Rabbit EFD study: maternal and fetal plasma toxicokinetics; format: in vivo
[2] = Exposure comparisons stated jointly for several nonclinical species; format: in vivo, rat, dog, rabbit
[3] = Human plasma protein binding; format: in vitro ADME
[4] = Dog repeat-dose toxicity studies: plasma toxicokinetics; format: in vivo
mouse colitis model = conditions: ref Sandborn et al., 2020; cited from earlier work
[5] = Rat EFD study: maternal and fetal plasma toxicokinetics; format: in vivo
[6] = Rat fertility and early embryonic development; format: in vivo; conditions: both, Sprague-Dawley (Crl:CD), rat, in vivo, oral
[7] = test system: Crl:CD Sprague Dawley (SD) rats; experiment: Rat fertility and early embryonic development; format: in vivo; conditions: for Fertility index / Mating index / Pregnancy rate / Females mated: rat FEED; for Females mated: 22 females paired
[8] = maternal rat, 30 and 100 mg/kg/day
[9] = maternal rat, GD 17, 1000 mg/kg/day

Question: For Cc1cc(Nc2cc3ncccc3c(N[C@@H]3C[C@H]4CC[C@@H](C3)N4CCC#N)n2)n[nH]1 [izencitinib, Izencitinib], which “time at supratherapeutic plasma levels” value ([1]; maternal rabbit, GD 19, 30 and 60 mg/kg/day) is on record?
Answer: 6 to 9 h

Question: What about the “nonclinical:clinical AUC ratio at the NOAEL” value ([1]; rabbit EFD study, 60 mg/kg/day, vs human 300 mg QD) of the same compound?
Answer: 33 fold

Question: And the “fetal plasma concentrations, all other samples” value ([1]; rabbit fetuses, undetectable, limit of quantitation)?
Answer: < 1 ng/mL

Question: And the concentration at 3 h ([1]; rabbit, fetal plasma, oral, 60 mg/kg/day)?
Answer: 1.55 ng/mL

Question: What about the “nonclinical:clinical systemic exposure (AUC) ratio at the NOAEL dose” value ([2]; rat and dog general toxicity studies, each study, vs human 300 mg QD) of the same compound?
Answer: 6- to 18 fold

Question: And the fetal exposure ([2]; rat and rabbit EFD studies)?
Answer: negligible

Question: What about the “maternal plasma Cave:JAK IC50 ratio” value ([2]; rat and rabbit EFD studies) of the same compound?
Answer: 2–6 ×

Question: And the “Cave:uncorrected IC50 ratio” value ([2]; rat and rabbit EFD, highest dose tested)?
Answer: ≥ 2 ×

Question: And the fraction unbound [3]?
Answer: 0.146

Question: What about the “nonclinical:clinical systemic AUC margin at the NOAEL” value ([4]; dog 39-week study, 30 mg/kg/day, vs human 300 mg QD) of the same compound?
Answer: 8 fold

Question: And the “Mean Cave” value ([4]; dog female, 10 mg/kg/day oral, 4 weeks, last day of dosing)?
Answer: 1.90 ng/mL

Question: And the “Mean Cave” value ([4]; dog female, 10 mg/kg/day oral, 13 weeks, last day of dosing)?
Answer: 1.53 ng/mL

Question: And the “Mean Cave” value ([4]; dog female, 10 mg/kg/day oral, 39 weeks, last day of dosing)?
Answer: 3.11 ng/mL

Question: What about the “Mean Cave” value ([4]; dog female, 30 mg/kg/day oral, 4 weeks, last day of dosing) of the same compound?
Answer: 14.8 ng/mL

Question: And the “Mean Cave” value ([4]; dog female, 30 mg/kg/day oral, 13 weeks, last day of dosing)?
Answer: 10.8 ng/mL

Question: And the “Mean Cave” value ([4]; dog female, 30 mg/kg/day oral, 39 weeks, last day of dosing)?
Answer: 20.5 ng/mL

Question: What about the “Mean Cave” value ([4]; dog female, 100 mg/kg/day oral, 13 weeks, last day of dosing) of the same compound?
Answer: 96.7 ng/mL

Question: And the “Mean Cave” value ([4]; dog female, 100 mg/kg/day oral, 39-week study, week 28 (day 197))?
Answer: 131 ng/mL

Question: And the “Mean Cave” value ([4]; dog male, 10 mg/kg/day oral, 4 weeks, last day of dosing)?
Answer: 2.30 ng/mL

Question: What about the “Mean Cave” value ([4]; dog male, 10 mg/kg/day oral, 13 weeks, last day of dosing) of the same compound?
Answer: 1.61 ng/mL

Question: And the “Mean Cave” value ([4]; dog male, 10 mg/kg/day oral, 39 weeks, last day of dosing)?
Answer: 2.08 ng/mL

Question: And the “Mean Cave” value ([4]; dog male, 30 mg/kg/day oral, 4 weeks, last day of dosing)?
Answer: 19.1 ng/mL

Question: And the “Mean Cave” value ([4]; dog male, 30 mg/kg/day oral, 13 weeks, last day of dosing)?
Answer: 12.5 ng/mL

Question: And the “Mean Cave” value ([4]; dog male, 30 mg/kg/day oral, 39 weeks, last day of dosing)?
Answer: 15.9 ng/mL

Question: And the “Mean Cave” value ([4]; dog male, 100 mg/kg/day oral, 13 weeks, last day of dosing)?
Answer: 190 ng/mL

Question: And the “Mean Cave” value ([4]; dog male, 100 mg/kg/day oral, 39-week study, week 28 (day 197))?
Answer: 69.6 ng/mL

Question: And the “plasma Cave:protein-corrected JAK IC50 ratio” value ([4]; dog, 10 mg/kg/day)?
Answer: < 1 ×

Question: And the “plasma Cave:uncorrected JAK IC50 ratio” value ([4]; dog, 10 mg/kg/day)?
Answer: < 1 ×

Question: And the “plasma Cave:protein-corrected JAK IC50 ratio” value ([4]; dog, 30 mg/kg/day)?
Answer: < 1 ×

Question: What about the “plasma Cave:uncorrected JAK IC50 ratio” value ([4]; dog, 30 mg/kg/day) of the same compound?
Answer: 1 ×

Question: And the “time within the therapeutic range” value ([4]; dog, 30 mg/kg/day)?
Answer: 6 to 9 h

Question: What about the “plasma Cave:protein-corrected JAK IC50 ratio” value ([4]; dog, 100 mg/kg/day) of the same compound?
Answer: 1–2 ×

Question: What about the “plasma Cave:uncorrected JAK IC50 ratio” value ([4]; dog, 100 mg/kg/day) of the same compound?
Answer: 7–11 ×

Question: And the “time at supratherapeutic plasma concentrations” value ([4]; dog, 100 mg/kg/day, all studies)?
Answer: up to 24 h

Question: And the “plasma Cave:uncorrected JAK IC50 ratio” value ([4]; dog, ≥100 mg/kg/day)?
Answer: ≥ 7 ×

Question: What about the “JAK inhibitor-associated splenic natural killer (NK) cell reductions” value (mouse colitis model) of the same compound?
Answer: spared

Question: And the “Cave:protein-corrected IC50 ratio” value [5, 8]?
Answer: < 1 ×

Question: And the “Cave:uncorrected IC50 ratio” value [5, 8]?
Answer: < 1 ×

Question: And the “Mean Cave” value ([5]; maternal rat, GD 6, 30 mg/kg/day oral)?
Answer: 0.613 ng/mL

Question: And the “Mean Cave” value ([5]; maternal rat, GD 6, 100 mg/kg/day oral)?
Answer: 2.15 ng/mL

Question: And the “Mean Cave” value ([5]; maternal rat, GD 6, 1000 mg/kg/day oral)?
Answer: 16.2 ng/mL

Question: What about the “Mean Cave” value ([5]; maternal rat, GD 17, 30 mg/kg/day oral) of the same compound?
Answer: 0.663 ng/mL

Question: And the “Mean Cave” value ([5]; maternal rat, GD 17, 100 mg/kg/day oral)?
Answer: 2.88 ng/mL

Question: And the “plasma Cave:protein-corrected JAK IC50 ratio” value [5, 9]?
Answer: < 1 ×

Question: And the “plasma Cave:uncorrected JAK IC50 ratio” value [5, 9]?
Answer: 2 ×

Question: And the “time at supratherapeutic plasma levels” value [5, 9]?
Answer: 12 to 15 h

Question: And the “Mean Cave” value ([5]; maternal rat, GD 17, 1000 mg/kg/day oral)?
Answer: 23.8 ng/mL

Question: And the “nonclinical:clinical AUC ratio at the NOAEL” value ([5]; rat EFD study, 1000 mg/kg/day, vs human 300 mg QD)?
Answer: 10 fold

Question: What about the “fetal plasma concentrations, all other samples” value ([5]; rat fetuses, below lower limit of quantitation) of the same compound?
Answer: < 1 ng/mL

Question: What about the concentration at 3 h ([5]; rat, fetal plasma, oral, 1000 mg/kg/day) of the same compound?
Answer: 1.18 ng/mL

Question: What about the NOAEL [6] of the same compound?
Answer: 1000 mg/kg/day

Question: And the Fertility index ([7]; 30 mg/kg/day oral)?
Answer: 90.9%

Question: What about the Mating index ([7]; 30 mg/kg/day oral) of the same compound?
Answer: 100.0%

Question: What about the Pregnancy rate ([7]; 30 mg/kg/day oral) of the same compound?
Answer: 90.9%

Question: What about the Females mated ([7]; 30 mg/kg/day oral) of the same compound?
Answer: 22 n

Question: What about the Females mated ([7]; 100 mg/kg/day oral) of the same compound?
Answer: 21 n

Question: What about the Fertility index ([7]; 1000 mg/kg/day oral) of the same compound?
Answer: 95.2%

Question: What about the Mating index ([7]; 1000 mg/kg/day oral) of the same compound?
Answer: 95.5%

Question: What about the Pregnancy rate ([7]; 1000 mg/kg/day oral) of the same compound?
Answer: 90.9%

Question: And the Females mated ([7]; 1000 mg/kg/day oral)?
Answer: 21 n

Question: And the “effect on male or female fertility” value ([7]; rat, up to 1000 mg/kg/day)?
Answer: did not affect; also recorded: No effects
